Reference: patent US20050048508A1, “Trehalose receptor and method for detecting trehalose with the same” (KABUSHIKI KAISHA HAYASHIBARA SEIBUTSU KAGAKU KENKYUJO, priority 2002, published 2005)

Biological target: T1, T1R3 with G protein α-subunits (α15 and α16/Z chimeric protein) (Mus musculus, UniProt Q925D8, I706N)
T1 construct: expressed in transfected cells; host or cells: 293 cells, RCB 1637 (human embryonic kidney)
T1 sequence (Q925D8 21-858 I706N): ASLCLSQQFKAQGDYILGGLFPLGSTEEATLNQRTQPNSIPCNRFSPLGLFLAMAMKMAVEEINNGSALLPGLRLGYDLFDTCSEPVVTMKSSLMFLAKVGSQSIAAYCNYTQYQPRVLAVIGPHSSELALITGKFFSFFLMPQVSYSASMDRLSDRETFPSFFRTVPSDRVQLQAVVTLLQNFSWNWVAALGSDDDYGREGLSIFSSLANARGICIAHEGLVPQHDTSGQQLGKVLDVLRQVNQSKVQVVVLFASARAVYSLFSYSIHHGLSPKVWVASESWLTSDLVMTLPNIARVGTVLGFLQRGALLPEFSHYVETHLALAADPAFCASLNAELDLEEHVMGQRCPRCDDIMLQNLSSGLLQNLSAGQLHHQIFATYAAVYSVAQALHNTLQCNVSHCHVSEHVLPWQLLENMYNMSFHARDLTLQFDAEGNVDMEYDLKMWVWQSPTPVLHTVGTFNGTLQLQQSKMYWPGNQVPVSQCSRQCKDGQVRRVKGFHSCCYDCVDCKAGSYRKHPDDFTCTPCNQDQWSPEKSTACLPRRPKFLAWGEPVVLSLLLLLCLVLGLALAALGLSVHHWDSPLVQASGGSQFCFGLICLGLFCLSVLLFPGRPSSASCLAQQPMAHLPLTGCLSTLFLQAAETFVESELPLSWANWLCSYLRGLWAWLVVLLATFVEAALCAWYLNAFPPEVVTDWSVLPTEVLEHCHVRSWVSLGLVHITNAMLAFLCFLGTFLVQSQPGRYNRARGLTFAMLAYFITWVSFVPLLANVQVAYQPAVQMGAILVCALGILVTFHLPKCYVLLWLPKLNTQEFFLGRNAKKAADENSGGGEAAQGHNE
Assay: Intracellular calcium ion assay, 293 cells coexpressing G protein α-subunits and T1R3 (trehalose receptor)
Format: cell-based
Method: The coexpression vector for the G protein α-subunit α15 and the G protein α16/Z chimeric protein (hereinafter designated as “G protein α-subunits”) obtained in Example 1-3 was gene transferred to 293 cells, RCB 1637, a human embryonic kidney cell line, available from the Riken Bioresource Center, Ibaraki, Japan, by conventional lipofection. The gene transferred cells were suspended in Dulbecco's Modified Eagle's Medium (D-MEM) supplemented with 1 mg/L of “PUROMYCIN”, a trade mane of puromycin commercialized by Edge Biosystems, MD, USA, and 10% (v/v) of fetal calf serum to give a cell density of 2×10^6 cells/ml and cultured in a plastic petri dish for cell culture. After 10 to 14 days of incubation, a puromycin-resistant cell colony was collected and confirmed its production of the G protein α-subunit proteins with an index of their mRNA level by conventional RT-PCR. Thus, a cell line capable of expressing the G protein α-subunit proteins was established. To the cells were gene transferred an expression vector for the sweet taste receptor protein T1R1, T1R2, or T1R3 in Example 2-2; or a coexpression vector for a pair of T1R1 and T1R2, T1R1 and T1R3, or T1R2 and T1R3 by conventional lipofection. The resulting cells were suspended in D-MEM supplemented with 1 mg/L of “PUROMYCIN”, 500 mg/L of “GENETICIN”, and 10% (v/v) of fetal calf serum and cultured in a plastic petri dish for cell culture. After 10 to 14 days of incubation, a cell colony resistant to both of the above drugs was collected and confirmed that the transferred gene had been expressed intracellularly as expected by conventional RT-PCR at a mRNA level. Thus, a cell, which had coexpressed the desired G proteins and sweet taste receptors, was obtained. As a control, a cell, into which an expression vector with no G protein α-subunit protein gene or sweet taste receptor protein gene, was prepared and used.
The captioned reactivity test was conducted according to a conventional intracellular calcium ion assay: 293 Cells prepared in Example 3, capable of coexpressing the G protein α-subunits and the sweet taste receptor(s), were cultured in a plastic petri dish for cell culture until reaching its confluent phase. Thereafter, the cells were detached from the inner surface of the petri dish with a 0.05% (v/v) trypsin solution and a 0.53 mM EDTA solution, suspended in D-MEM supplemented with 10% (v/v) fetal calf serum to give a cell density of 1×10^6 cells/ml, and allowed to intake “FLUO-4. AM”, a reagent for detecting intracellular calcium ion commercialized by Molecular Probes Inc., Ore., USA, by adding to the cell suspension to give a final concentration of 2 μM and incubating the cells at 37 ° C. for 30 to 90 min. The resulting cells were washed with a buffer for detecting calcium ion, which contained 10 mM HEPES (pH 7.4), 130 mM sodium chloride, 5.4 mM potassium chloride, 2 mM calcium chloride, 1 mM magnesium chloride, 5.5 mM D-glucose, 0.1% (v/v) calf serum albumin, and 1 mM sodium pyruvate to remove the reagent remained extracellularly; suspended in a fresh preparation of the same buffer to give a cell density of 2.67 ×10^7 cells/ml; filtered with a membrane with a pore size of 100 μm mesh; and allowed to stand at 25° C. for 30 min. Two milliliters of the resultant cell suspension was injected into a glass cuvette, commercialized by Hitachi, Ltd., Tokyo, Japan, and analyzed on “HITACHI 650-40”, a fluorescence spectrophotometer commercialized by Hitachi, Ltd., Tokyo, Japan. […]

[1] = 293 cells: T1R3 + G protein α-subunits, 0.67 ml of 1 M saccharide solution added to 2 ml cell suspension, FLUO-4 AM
[2] = Table 4: sweet taste substances on cells coexpressing G protein α-subunits and T1R3, measured similarly as in Example 4

| Influx of calcium ion [1] | Influx of calcium ion (293 cells: T1R3 + G protein α-subunits, 0.67 ml of 1 M saccharide solution added to 2 ml cell suspension, FLUO-4 AM, listed as trehalose) | Influx of calcium ion [2] | SMILES |
| --- | --- | --- | --- |
| Positive | reacted | Positive | OC[C@H]1O[C@H](O[C@H]2O[C@H](CO)[C@@H](O)[C@H](O)[C@H]2O)[C@H](O)[C@@H](O)[C@@H]1O [Trehalose] |
| Negative |  | Negative | OC[C@H]1O[C@@](CO)(O[C@H]2O[C@H](CO)[C@@H](O)[C@H](O)[C@H]2O)[C@@H](O)[C@@H]1O [Sucrose, reference compound] |
